This note sets out measurements from publication PMC5537305, “Photo-enhanced Aqueous Solubilization of an Azo-compound” (Scientific Reports, 2017).

SMILES strings stand for the structures. Converted amounts (≈) assume the structure as drawn.

What all share (assay type): physicochemical
Data set [1] in a line: Aqueous solubility of stilbenes 1 and 2 in phosphate buffer. The settings on record: for solubility at 24 h: 20 °C, aqueous buffer, thermodynamic from solid, 20 °C for 24 h. From the text: First, we synthesized cis- and trans-stilbene analogs 1 and 2 as models for cis- and trans-azobenzenes, respectively (Fig. 1, Fig. S1). As expected, cis-1 was 14 times more soluble than trans-2 in phosphate buffer (Table S1). To confirm the putative mechanism of the higher solubility of the cis isomer, the melting point and LogP ow were examined as parameters of intermolecular interaction and hydrophobicity, respectively. The order of lower melting points (cis < trans) was the same as the order of higher aqueous solubility (cis > trans). As for hydrophobicity, the LogP ow values of 1 and 2 were almost the same. […] Therefore, the bent and twisted structure of cis-azobenzenes may result in greater aqueous solubility.
Table S1. Physicochemical properties of stilbenes 1 and 2.
Compound (µg/mL) Melting point (º C) LogPow λmax (nm)
Table S2. Photoinduced isomerization of 3
Light Time (min) cis ratio (%) trans ratio (%)
Compound 3 (10 µM) in a mixture of water and MeOH (1%) was successively exposed to white light and to a 365 nm mercury lamp (0.5 mW/cm2). The cis-trans ratio was calculated from the peak areas in HPLC.
(§1) Table S3. Cis ratio and aqueous solubilization of 3 under UV irradiation, under visible light irradiation, and in […]
Shake UV light Visible light Dark time cis ratio Solubilized 3 cis ratio Solubilized 3 cis ratio Solubility (%) (µg/mL) (%) (µg/mL) (%) (µg/mL)
(§2) Compound 3 was shaken at 37 °C under UV irradiation, under visible light irradiation, and in the dark. UV irradiation was performed with a mercury lamp (0.5 mW/cm2). Cis ratio in the aqueous solution was evaluated from the peak areas in HPLC immediately after filtration.

Data set [2] is described as follows: LogPow by HPLC method (OECD 117). The note with it: reversed-phase HPLC column (Inertsil ODS-4). How it is done:
Inc. Inertsil ODS-4 reversed-phase column, 5 µm, 4.6 mm x 150 mm) eluted with a mobile phase consisting of H2O and CH3CN (45: 55) at a flow rate of 1.0 mL/min, with UV monitoring at 300 (for 1) or 330 (for 2) nm, at 37 ° C. The dead time t0 was measured with thiourea as the unretained compound. Each measurement was performed in duplicate, and the mean retention time (tR) was used for further calculations. The capacity factor of each compound, k = ((tR – t0) / t0), was calculated by extrapolation of the line fitted on the measured log k values of CH3CN−aqueous mobile phase. For the reference substrates (acetanilide, methyl benzoate, toluene, 4-phenylphenol, benzyl benzoate, dibenzyl), the calculated log k values were plotted against logPow values, and the absolute calibration curve was determined (LogP = 2.8279 x (log k) + 1.6035, R2=0.98). The LogP values of tested compounds were calculated using a previously prepared calibration curve from the tR […]
We observed the azobenzene compound using an optical microscope (BX-51P, Olympus). Bright-field images were captured in the reflection mode. For investigation of the existence of the polarization plane in the sample, the transmitted polarizing microscope mode under crossed-Nicol conditions was used. […] The intensity of illuminating UV light at the sample was monitored with an optical power meter […]

Data set [3] is described as follows: Aqueous solubilization in 1/15 M phosphate buffer (pH 7.4) under UV, visible light or dark, with cis ratio in solution by HPLC. How it is done: as §1, §2
Table S4. Aqueous solubilization and cis ratio of 3 under irradiation at various wavelengths through filters of […]
Illumination was performed with a xenon lamp using repeated cycles of irradiation and shaking (5000 flashes, then shaking for 10 sec) through filters of various bandwidths at room temperature (20-22 °C) for 1 h. The cis ratio in the aqueous solution was evaluated by HPLC immediately after filtration, based on peak area.
Table S5. Aqueous solubilization of 3 under UV irradiation at various intensity levels.
Sample irradiation was conducted using 365 nm LED light (max light intensity: 290 mW/cm2) at 37 °C for 1 […]
Sample irradiations were conducted with the white light through a filter cutting off wavelengths below 560 nm, or with 365 nm LED light (344 mW/cm2) at 37 °C for 1 h.
Table S7. Aqueous dissolution of UV-irradiated crystals of 3 measured in the dark, and the cis ratio contained […]
Crystals of 3 were irradiated with 365 nm LED light (344 mW/cm2) at 37 °C for 3 h.
The UV-irradiated crystals and unirradiated crystals were each shaken in phosphate buffer in the dark at 37 °C for 1 h.
Physicochemical properties […]
Compound 3 (about 0.2 mg) was ground and taken up in 1/15 M phosphate buffer (pH 7.4, 1.0 mL) in a 10 mL glass tube. The suspension was incubated under ultrasound irradiation for 10 min, and shaken in a temperature controllable incubator located in a dark room for the indicated time at the indicated temperature.
With shaking on a plate shaker, a sample was irradiated with a 365 nm mercury lamp (4 W, UVP compact […]
white LED light (5 W, Nikki Trading Corp., NLSS05BM, 68 and 54 mW/cm2 at 450 and 540 nm, respectively) through a filter cutting off wavelengths below 560 nm (Atto Corp. YA-3). Irradiation was done from the top of the sample glass tube. Then, the suspension was filtered through a Millipore Millex-LG (0.20 […]
For irradiation at various UV wavelengths, 3 (about 0.1 mg) was ground and taken up in 1/15 M phosphate buffer (pH 7.4, 0.2 mL) in a well of a 96-well white plate. Illumination over a range of wavelength from 355-540 nm was performed using a plate reader EnVision equipped with a xenon flash lamp (35 W, 500 Hz), with excitation filters of appropriate bandwidths.

The compound `COc1ccc(/C=C\c2ccc(OC)c(OC)c2)cc1OC` [cis-1] registered a solubility at 24 h in data set [1] of 0.673 µg/mL (≈ 2.24 µM). In addition, in data set [1] (cis-1 vs trans-2), the “times more soluble than trans-2” value came out at 14 times. This compound yielded a chromatographic logP in data set [2] of 3.3.
As for `O=C(O)c1cc(/N=N/c2ccc(S(=O)(=O)Nc3ccccn3)cc2)ccc1O` [Compound 4, Sulfasalazine, reference compound], in data set [3] (UV 0.5 mW/cm2, 37 °C, 5 h), the “aqueous solubilization under UV irradiation vs in the dark” value is “essentially the same”. Moreover, the “increase of solubilization by UV irradiation” value in data set [3] (more intense UV irradiation (344 mW/cm2)) is listed as 1.4 fold.
Take `COc1ccc(/C=C/c2ccc(OC)c(OC)c2)cc1OC` [trans-2]: the concentration in solution in data set [1] (solubility at 24 h) came to 0.0475 µg/mL (≈ 0.158 µM). The same compound had a chromatographic logP in data set [2] of 3.2.

As a reminder, the solubility is the concentration that dissolves in the medium under given conditions. By chromatographic logP is commonly meant lipophilicity estimated from chromatographic retention.
